The values that follow come from patent publication US6043386A, “Non-calcemic, antiproliferative, transcriptionally active 24-fluorinated hybrid analogs of 1α,-25-dihydroxy vitamin D3” (John Hopkins University, priority 1999, dated 2000).

One data set relates to murine keratinocytes. The data set can be described thus: in vitro antiproliferative activity in murine keratinocytes (FIG. 1). The data set is classed as cell-based. Particulars: for antiproliferative activities: 1α,3β vs. 1β,3α diastereomers; for antiproliferative activity relative to 1,25D3: even at physiologically relevant 7 nM concentrations. As to the method: Each of these new hybrid analogs (Structures 3 and 4 of Scheme I) is evaluated initially for in vitro antiproliferative activity in murine keratinocytes, using the protocol described in Posner et al., J. Med. Chem. 1992, 35, pp. 3280-3287. The procedure utilized is described as follows:
(§1) Murine B16 malignant melanoma cells are grown and propagated in RPMI medium supplemented with 10% fetal bovine serum, L-glutamine, penicillin, and streptomycin and incubated at 37° C. in 5% CO2. For proliferation studies, cells are washed with PBS, trypsinized, and suspended in 8 ml of supplemented RPMI medium. The cell density is then determined using a hemacytometer and cells are resuspended in RPMI at 10,000 cells/cm^3. One ml of cell suspension (10,000 cells) is added to each well of a Falcon 24 Well Flat Bottom Tissue Culture Plate (Becton-Dickinson, Lincoln Park, N.J.). Plates are incubated for 24 hours to allow for cell attachment. The medium is then removed and replaced with fresh RPMI medium containing either 0.4% solvent (isopropanol) or vitamin D analog at concentrations ranging from 1-1000 nM in triplicate. When control wells near confluence, cells are washed with PBS, trypsinized, and suspended in 10 ml of Isoton II Coulter Balanced EIectrolyte Solution in FISHERbrand Dilu-Vial cuvettes. Cell number is then determined for each well as an average of two readings on a ZM Coulter Counter. Results are expressed as the average cell number for each vitamin D analog treatment group divided by the intital cell number (N/N0). The average standard deviation of the N/N0 cell number measurements was 0.21 in FIG. 1 and 2.1 in FIG. 2.

For another data set, the system named is Male F344 rats. Put plainly: Determination of urinary calcium levels / hypercalcemic effects in vivo (FIG. 3). Further details: species or system rat. Particulars: 1 microgram per kg per os, seven consecutive days. The procedure: Because of their high antiproliferative and transcriptional activities in vitro, fluorinated hybrid analogs, Structures 3b and 4b, are evaluated for hypercalcemic effects in vivo. The procedure utilized is described as follows:
Determination of urinary calcium levels.
(§2) Male F344 rats (150 g) are housed individually in glass metabolism cages and received food and water ad libitum. After several days acclimation, rats receive 1 microgram per kg body weight of test compound per os for seven consecutive days in 150 microliters of propylene glycol/0.05M Na2 HPO4 (80:20). Urine samples, which are collected on ice, were centrifuged at 650×g for 10 min, adjusted to pH 6.0 as necessary, and assayed for calcium content spectrophotometrically at 575 nm using reagents and standards from Sigma Calcium Kit #587.

A short description of data set [1]: body weight gain in rats treated daily for one week. The format is in vivo, rat. Particulars: 1 microgram per kg per os, seven consecutive days. As to the method:
as §2

For data set [2], the system named is Murine B16 malignant melanoma cells. Put plainly: Antiproliferative assays using malignant melanoma cells (FIG. 2). Conditions: even at 1 nM concentration. The format is cell-based. The procedure: Antiproliferative assays using malignant melanoma cells
as §1, with “The average standard deviation of the N/N0 cell number measurements was 0.21 in FIG. 1 and 2.1 in FIG. 2.” left out

The test system of the next data set is vitamin D receptor. The data set can be described thus: in vitro vitamin D receptor-mediated transcriptional activity in ROS 17/2.8 cells (growth hormone reporter). The data set is classed as cell-based. Particulars: 48 h, rat osteosarcoma ROS 17/2.8 cells, vitamin D responsive element of human osteocalcin gene, 2 days, read-out: ED50 (transcriptional potency). The procedure:
The procedure utilized is described as follows:
Transfections and transcriptional activity of the analogs.
Rat osteosarcoma ROS 17/2.8 cells are maintained in 50% Dulbecco's modified Eagle medium (DMEM) and 50% F12 nutrient mixture supplemented with 10% fetal bovine serum. Forty eight hours before transfections, the cells are plated in 35-mm dishes at a density of 10^5 /dish in DMEM and 10% fetal bovine serum. ROS 17/2.8 cells are transfected with 2 μg of plasmid containing the vitamin D responsive element from the human osteocalcin gene ([…]) attached to the thymidine kinase promoter/growth hormone fusion gene. […] Medium samples for measurements of reporter gene expression (growth hormone) are collected 2 days after transfection. Growth hormone is measured by a radioimmunoassay as described by the manufacturer (Nichols Institute, San Juan Capistrano, Calif.).

For the compound `C=C1/C(=C\C=C2/CCC[C@]3(C)C([C@H](C)CCC(F)(F)C(C)(C)O)=CC[C@@H]23)C[C@@H](O)C[C@@H]1CO` [Structure 3a], the antiproliferative activities entry with murine keratinocytes is “much less potent”.

In the case of `C=C1/C(=C\C=C2/CCC[C@]3(C)C([C@H](C)CCC(F)(F)C(C)(C)O)=CC[C@@H]23)C[C@H](O)C[C@H]1CO` [Structure 3b], in the data set with Male F344 rats, the “calcium excretion into the urine” value was “no calcium elevation above control”. In data set [1], the “suppression of body weight gain” value is on record as “not observed”. For the same compound, in the data set with murine keratinocytes, the antiproliferative activities entry is “significant antiproliferative activities” and the “antiproliferative activity relative to 1,25D3” value is “at least equal to that of 1,25D3”. Moreover, in data set [2], the “antiproliferative potency relative to 1,25D3” value is recorded as “more potent antiproliferative agents than 1,25D3”. Moreover, in the data set on vitamin D receptor, the EC50 came to 0.2 nM.

Take `C=C1/C(=C\C=C2/CCC[C@]3(C)C([C@H](C)CCC(F)(F)C(O)(CC)CC)=CC[C@@H]23)C[C@@H](O)C[C@@H]1CO` [Structure 4a]: the antiproliferative activities result with murine keratinocytes was “much less potent”.

`C=C1/C(=C\C=C2/CCC[C@]3(C)C([C@H](C)CCC(F)(F)C(O)(CC)CC)=CC[C@@H]23)C[C@H](O)C[C@H]1CO` [Structure 4b]: the “calcium excretion into the urine” value in the data set on Male F344 rats is “no calcium elevation above control”. In data set [1], the “suppression of body weight gain” value is “not observed”. In the data set with murine keratinocytes, the antiproliferative activities result was “significant antiproliferative activities” and the “antiproliferative activity relative to 1,25D3” value is reported as “at least equal to that of 1,25D3”. In data set [2], the “antiproliferative potency relative to 1,25D3” value is reported as “more potent antiproliferative agents than 1,25D3”. In addition, the EC50 with vitamin D receptor amounted to 0.05 nM.

For `C=C1/C(=C\C=C2/CCC[C@]3(C)[C@@H]([C@H](C)CCCC(C)(C)O)CC[C@@H]23)C[C@@H](O)C[C@@H]1O` [calcitriol, 1α,25-dihydroxy vitamin D3, reference compound], the “calcium excretion into the urine” value in the data set with Male F344 rats is listed as “marked excretion of calcium into the urine”. In addition, the “suppression of body weight gain” value in data set [1] is listed as “suppression of body weight gain”.
